Publication PMC6540222, “Small Molecule Inhibitors of KDM5 Histone Demethylases Increase the Radiosensitivity of Breast Cancer Cells Overexpressing JARID1B” (Molecules, 2019)

Key:
KDM5D = KDM5D (Homo sapiens, UniProt Q9BY66); experiment: Surface Plasmon Resonance (SPR), immobilized KDM5D; type: binding; conditions: KDM5D immobilized on COOH5 sensorchip, buffer HSP-1%D, analyte 6.25-100 μM
Experimental: Surface Plasmon Resonance (SPR) experiments were carried out using a SensiQ Pioneer system (ICx Nomadics, Stillwater, OK, USA). Immobilization of ligand (KDM5D) was carried out essentially as in Ilari et al.. The sensor chip (COOH5) was activated chemically by a 100 µL injection of a 1:1 mixture of N-ethyl-N′-(3-([…])carbodiimide (200 mM) and N-hydroxysuccinimide (50 mM) at a flow rate of 5 µL/min. KDM5D was immobilized on activated sensor chips via amine coupling. The immobilization was carried out in 20 mM sodium acetate at pH 4.5; the remaining unreacted groups were blocked by injecting 1 M ethanolamine hydrochloride (100 µL). The amount of immobilized KDM5D was detected by mass concentration-dependent changes in the refractive index on the sensor chip surface and corresponded to about 11,000 resonance units (RU); an empty flow cell was used as a reference. Analytes, i.e., inhibitors RS3152, RS3183, RS3195, RS4995 and RS5033 were dissolved in DMSO at a concentration of 10 mM and diluted in HSP buffer (10 mM Hepes pH 7.4, 150 mM NaCl + 0.005% surfactant P20) to yield 100 μM inhibitor concentration in HSP + 1% DMSO (HSP-1%D). The analytes were automatically diluted in HSP-1%D and injected on the sensorchip for 120 s at a constant flow (30 µL/min); analyte concentrations were: (1) 6.25 μM; (2) 12.5 μM; (3) 25 μM; (4) 50 μM; (5) 100 μM. The increase in RU relative to baseline indicates complex formation; the plateau region represents the steady-state phase of the interaction, whereas the decrease in RU after 120 s represents dissociation of analytes from immobilized KDM5 after injection of buffer HSP-1%D. The sensorgrams were analysed using the SensiQ Qdat 4.0 program and using simple Scatchard plots.

[1] = system: H3K4me3 levels in MCF-7 cells; experiment: Western blotting of H3K4me3 levels in bulk chromatin; type: cell-based, human; conditions: MCF7 bulk chromatin, 24 h
Experimental: Histone isolation was performed according to acid extraction of histones protocol of Shechter and colleagues. Histone concentration was determined by running 5 μL of samples and known concentrations of commercially available purified calf thymus histones (from Sigma Aldrich Cat. #000000010223565001) on a SDS-PAGE gel. The gel is stained with Coomassie blue G 250 (BIO-RAD Cat. #161-0786) for 1 hour at room temperature and then destained in distilled water. The gel image is acquired with ChemiDoc XRS+ Imaging System (Bio-Rad, Hercules, CA, USA) and the volumes of bands of the samples are compared to standard concentrations of calf thymus histone.
(§1) Proteins were resolved on a 12% (histones) or 5% (JARID1B) denaturing polyacrylamide gel, using either 4 μg of histone preparation or 40 μg of cell lysate. After electrophoresis, proteins were transferred on a nitrocellulose membrane (Protran™ […] NC, # 10600002, GE Healthcare (Amersham™), Chicago, IL, USA) via wet transfer method using a Bio-Rad tank. Transfer efficiency was verified via ponceau staining (#P7767, Sigma-Aldrich). Filters were blocked with either milk (#70166, Sigma-Aldrich) or bovine serum albumin (#A3069, Sigma-Aldrich) and then hybridized over night at 4 °C in gentle rotation with the following antibodies: rabbit anti-H3K4me3 (1:1000, #39915, Active Motif, RRID:AB_2687512); rabbit-anti-H3K27me3 (1:1000, #9733, Cell Signaling Technology, RRID:AB_2616029); rabbit-anti- H3K9pan-methylated (1:1000, #4473, RRID:AB_10544693); rabbit-anti-H3 ([…], Cat#1791, ABCAM, RRID:AB_302613); rabbit anti-H2AX (1:1000, Cat#7631, Cell Signaling Technology, RRID:AB_10860771), rabbit anti-Phospho-H2AX (1:1000, Cat#9718, Cell Signaling Technology, RRID:AB_2118009), rabbit anti-JARID1B (1:50, Cell Signaling Technology, Cat#3273 RRID: AB_1264191). Goat-anti-Rabbit Horseradish Peroxidase conjugated (1:10,000, #31460, Thermo Fisher Scientific, Waltham, MA, USA RRID:AB_228341) was used as secondary antibody for 1 hour hybridization at room temperature. Blots were scanned and analyzed with a ChemiDoc XRS+ Imaging System (Bio-Rad). The volumes of each band of protein was acquired using Bio-Rad’s ImageLab software by means of volume tools using global quantification. The signal for each protein was normalized to the housekeeping protein and ratios with average control values were determined. For histones as loading control was used either total histone H3 detected by a specific antibody or histone H1 levels by staining the upper part of the gel properly cut before protein transfer on nitrocellulose membrane.

MCF-7 cells [2] = experiment: Flow-cytometry analysis of cell cycle distribution; type: cell-based, human; conditions: MCF-7, same range of concentrations as H3K4me3 test (not shown)
Experimental: Flow-cytometry analysis of DNA content was carried out using an EPICS xl flow-cytometer (Beckman-Coulter, Brea, CA, USA). DMSO and inhibitor treated MCF-7 cells were trypsinized, pelleted, washed with PBS and finally resuspended in PBS containing 0.1% Triton-X-100 (#A1388.1000, AppliChem, Darmstadt, Germany) and 40 μg/mL propidium iodide (#P-4170, Sigma). After 20 min incubation at 37 °C the samples were analyzed. 10,000 events were acquired for each sample. Acquired data were analyzed using the WinMDI software by Joe Trotter, available at http://facs.scripps.edu.

MCF-7 cells [3] = experiment: CCK-8 viability assay after X-ray irradiation; type: cell-based, human; conditions: MCF-7 irradiated with 3 Gy, all concentrations tested, compared to DMSO control, CCK-8 48 h post irradiation
Experimental: The cytoxicity assay was performed with Cell Counting Kit-8 (#96992, Sigma-Aldrich) according to the manufacturer’s instructions. 100 µL of MCF-7 T47D or MDA-MB231 cell suspension (5000 cells/well) was dispensed in a 96-well plate. After 24 h, inhibitor or DMSO was added in growth medium and then cells were irradiated. 48 h post irradiation, 10 μL of CCK-8 solution was added to each well of the plate and incubated again for 1 h. Incubate the plate for 1–4 h in the incubator. The absorbance at 450 nm was read using a VICTOR2 1420 reader (Perkin Elmer Wallac, Waltham, MA, USA). The absorbance at 450 nm of each sample, which is proportional to the number of viable cells, was first normalized on the same value of absorbance of blank (a well with only growth medium). The absorbance of each dose of radiation (sham, 0.3, 1 and 3 Gy) was normalized to the corresponding DMSO control and then, for each concentration of inhibitors, these values were normalized to the corresponding sham control.

MCF-7 cells [4] = experiment: Clonogenic assay after X-ray irradiation; type: cell-based, human; conditions: MCF-7, 0.03 μM, 3 and 10 Gy, compared to DMSO control
Experimental: One hour after treatment with inhibitors, cells were exposed to X-ray using a MLG 300/6-D apparatus (Gilardoni, Lecco, Italy) set to […] and 6 mA, in order to produce an equivalent absorbed dose of 1cGy/s. Afterwards, cells were harvested, counted and then diluted in inhibitor containing growth medium. Appropriate cell numbers were seeded in quadruplicate according to the doubling time of the cell line and to radiation dose. 24 h after this seeding, the medium with inhibitor was replaced with fresh DMEM and cells were then incubated for 14 days (enough time to allow at least six cell divisions). After this period of growth, cells were washed twice with PBS and then fixed and stained with a suitable volume of a solution made of 0.3% Methylene Blue and 80% Ethanol for 30 min at room temperature. After washing cells twice with ddH2O, plates were pictured with ChemiDoc XRS+ Imaging System (Bio-Rad) in colorimetric mode. Colonies were detected using Fiji software, with the “Find maxima” function setting a background noise threshold of 3000. Radiation-dose response curveS to X-ray for DMSO and inhibitor samples were calculated using surviving fraction. Plating efficiency and surviving fraction were calculated as follows:Plating efficiency = number of colonies counted/number of cells plated Surviving fraction = Plating efficiency/plating efficiency of shame sample

[5] = system: γ-H2AX levels in MCF-7 cells; experiment: Western blotting of H2AX phosphorylation after irradiation; type: cell-based, human; conditions: RS5033 10 μM, KDOAM-25 0.03 μM
Experimental: as §1

KDM5A-D = conditions: in vitro, toward KDM5 enzymes; ref Tumber et al. [49]; cited from earlier work
[6] = system: panel of 55 receptors and enzymes; set-up: method as in PMID 28262558; conditions: cited from earlier work
[7] = system: MM1S multiple myeloma cells; set-up: method as in PMID 28262558; conditions: cited from earlier work

Chain of KDM5D (Q9BY66 whole entry): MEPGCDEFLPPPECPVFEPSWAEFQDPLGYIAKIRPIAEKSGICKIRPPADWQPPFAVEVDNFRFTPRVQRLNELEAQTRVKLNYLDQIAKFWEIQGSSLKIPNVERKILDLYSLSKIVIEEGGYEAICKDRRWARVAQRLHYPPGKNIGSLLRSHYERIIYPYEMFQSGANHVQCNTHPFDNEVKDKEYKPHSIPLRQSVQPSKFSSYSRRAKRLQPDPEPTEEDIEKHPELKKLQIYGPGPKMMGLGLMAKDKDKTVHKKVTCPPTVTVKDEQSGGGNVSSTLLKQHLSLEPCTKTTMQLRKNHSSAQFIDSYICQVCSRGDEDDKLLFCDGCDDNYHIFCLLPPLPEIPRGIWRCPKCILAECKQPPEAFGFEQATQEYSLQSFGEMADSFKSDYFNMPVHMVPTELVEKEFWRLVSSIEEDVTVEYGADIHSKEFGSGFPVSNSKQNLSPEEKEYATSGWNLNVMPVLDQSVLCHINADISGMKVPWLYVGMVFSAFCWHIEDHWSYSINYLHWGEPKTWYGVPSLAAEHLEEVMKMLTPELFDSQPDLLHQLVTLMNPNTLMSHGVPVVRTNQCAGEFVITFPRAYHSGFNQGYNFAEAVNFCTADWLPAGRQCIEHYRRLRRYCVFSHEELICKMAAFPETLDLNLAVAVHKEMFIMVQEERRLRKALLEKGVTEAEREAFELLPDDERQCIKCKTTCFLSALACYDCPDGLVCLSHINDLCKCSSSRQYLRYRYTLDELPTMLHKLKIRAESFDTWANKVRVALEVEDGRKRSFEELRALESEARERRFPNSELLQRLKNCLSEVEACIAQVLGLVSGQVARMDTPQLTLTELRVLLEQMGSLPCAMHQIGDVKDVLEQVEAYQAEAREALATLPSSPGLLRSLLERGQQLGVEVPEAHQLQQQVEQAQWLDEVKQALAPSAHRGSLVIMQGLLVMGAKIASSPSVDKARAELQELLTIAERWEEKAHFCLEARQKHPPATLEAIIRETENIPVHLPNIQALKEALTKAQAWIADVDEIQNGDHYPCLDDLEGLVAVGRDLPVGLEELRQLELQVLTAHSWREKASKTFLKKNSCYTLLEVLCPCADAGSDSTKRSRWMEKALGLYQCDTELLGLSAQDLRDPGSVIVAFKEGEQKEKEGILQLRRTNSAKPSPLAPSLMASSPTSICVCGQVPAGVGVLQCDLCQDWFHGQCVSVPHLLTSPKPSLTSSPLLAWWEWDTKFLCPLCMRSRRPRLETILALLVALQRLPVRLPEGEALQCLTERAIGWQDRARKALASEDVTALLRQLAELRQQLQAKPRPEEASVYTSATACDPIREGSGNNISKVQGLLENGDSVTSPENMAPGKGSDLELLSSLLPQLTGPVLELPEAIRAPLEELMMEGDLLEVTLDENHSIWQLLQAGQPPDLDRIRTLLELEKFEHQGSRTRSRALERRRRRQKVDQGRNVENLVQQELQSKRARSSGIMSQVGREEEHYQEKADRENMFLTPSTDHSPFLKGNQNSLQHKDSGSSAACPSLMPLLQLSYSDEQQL

SMILES: COc1ccc(S(=O)(=O)Nc2cccc(C(=O)O)c2)cc1 [RS3183]
- Kd (KDM5D): 150 ± 15 µM

SMILES: COc1ccc(S(=O)(=O)Nc2cccc(C(=O)n3cccc3)c2)cc1 [RS3152]
- Kd (KDM5D): 62 ± 5 µM

SMILES: CCOC(=O)c1ccccc1C(=O)c1ccc(NS(=O)(=O)c2ccc(Br)cc2)cc1 [RS4995]
- Kd (KDM5D): 38 ± 3 µM

SMILES: CCN(CCN(C)C)C(=O)CNCc1cc(C(N)=O)ccn1 [KDOAM-25, reference compound]
- increase of H3K4 tri-methylation ([1]; 0.03–1 μM): around 1.5 fold
- increase of H3K4 tri-methylation at higher concentrations ([1]; concentrations above 1 μM): the effect is lost
- effect on cell cycle (MCF-7 cells [2]): does not show any significant effect
- reduction of viable cells (MCF-7 cells [3]): 20–35%
- proliferative capacity (clonogenic survival) (MCF-7 cells [4]): slight but significant decrease
- ɤH2AX increase normalized to the amount of H2AX ([5]; MCF-7, 6 Gy, 4-36 h): not significant
- amount of ɤH2AX ([5]; MCF-7, sham-irradiated and irradiated (6 Gy) cells): increases
- IC50 (KDM5A-D): < 0.1 µM
- off-target activity [6]: no off-target activity
- proliferation of MM1S multiple myeloma cells [7]: block proliferation
